The nature of data set [1]: Lipophilicity, log D at pH 7.4. Type of data set: physicochemical. The following applies: buffer.
Data set [2] in a line: Metabolic stability in rat microsomes at 1 uM. Format: ADME, Microsome. Particulars: read-out: Stability.
A short description of data set [3]: Metabolic stability in human microsomes at 1 uM. The following applies: read-out: Stability. Type of data set: ADME, Microsome.
The target of data set [4] is Mitogen-activated protein kinase 8 (Homo sapiens, UniProt P45983). As to the kind of experiment: Inhibition of human JNK1 by radiometric assay.
Mitogen-activated protein kinase 8 (Homo sapiens, UniProt P45983), sequence (P45983 whole entry): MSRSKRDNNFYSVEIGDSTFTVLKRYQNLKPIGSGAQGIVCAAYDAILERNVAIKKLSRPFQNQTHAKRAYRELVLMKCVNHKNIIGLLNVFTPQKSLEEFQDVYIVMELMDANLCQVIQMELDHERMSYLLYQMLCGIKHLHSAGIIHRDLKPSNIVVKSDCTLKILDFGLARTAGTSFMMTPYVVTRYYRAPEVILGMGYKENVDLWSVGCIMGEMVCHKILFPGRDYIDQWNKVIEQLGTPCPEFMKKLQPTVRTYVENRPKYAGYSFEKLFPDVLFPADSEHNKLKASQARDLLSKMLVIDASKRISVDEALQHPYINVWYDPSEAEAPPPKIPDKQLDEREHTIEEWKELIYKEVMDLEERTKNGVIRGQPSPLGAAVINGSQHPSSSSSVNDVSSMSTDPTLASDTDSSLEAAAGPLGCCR
Data set [5] addresses Mitogen-activated protein kinase 8 (Rattus norvegicus, UniProt P49185). Description: Inhibition of JNK1 in rat H9c2 cells assessed as inhibition of anisomycin-induced cJun phosphorylation after 30 mins. Format: cell-based.
Data set [6] can be described thus: Cmax in Wistar rat at 3 mg/kg, po. Format: ADME, organism-based. The arrangement: dose 3 mg/kg, route oral. Particulars: in vivo.
Data set [7] in a line: Total clearance in Wistar rat at 0.3 mg/kg, iv. Format: ADME, organism-based. Particulars: in vivo. The arrangement: dose 0.3 mg/kg, route intravenous.
Data set [8] in a line: Oral bioavailability in Wistar rat at 3 mg/kg. Format: ADME, organism-based. Particulars: in vivo.
In data set [9] the test system is Rattus norvegicus. As to the kind of experiment: Suppression of pressure-overload-induced cardiac hypertrophy in Wistar rat assessed as decrease in left ventricular weight to body weight ratio at 1 mg/kg, po once daily for 7 days. The arrangement: dose 1 mg/kg. The following applies: Heart left ventricle. Type of data set: functional, organism-based.
A short description of data set [10]: AUC in Wistar rat at 0.3 mg/kg, iv. Type of data set: ADME, organism-based. Set-up: dose 0.3 mg/kg, route intravenous. The following applies: plasma.
A short description of data set [11]: AUC in Wistar rat at 3 mg/kg, po. Format: ADME, organism-based. Set-up: dose 3 mg/kg, route oral. Particulars: plasma.
Data set [12] in a line: Tmax in Wistar rat at 3 mg/kg, po. Format: ADME, organism-based. Set-up: dose 3 mg/kg, route oral. Particulars: in vivo.
Data set [13] is described as follows: Volume of distribution at steady state in Wistar rat at 0.3 mg/kg, iv. Set-up: dose 0.3 mg/kg, route intravenous. Format: ADME, organism-based. The following applies: in vivo, read-out: Vdss.

Structures are written as SMILES. Activity calls are given as the source filed them. The rule behind the calls is not given here.

Mitogen-activated protein kinase 8 (Rattus norvegicus, UniProt P49185), sequence (P49185 whole entry): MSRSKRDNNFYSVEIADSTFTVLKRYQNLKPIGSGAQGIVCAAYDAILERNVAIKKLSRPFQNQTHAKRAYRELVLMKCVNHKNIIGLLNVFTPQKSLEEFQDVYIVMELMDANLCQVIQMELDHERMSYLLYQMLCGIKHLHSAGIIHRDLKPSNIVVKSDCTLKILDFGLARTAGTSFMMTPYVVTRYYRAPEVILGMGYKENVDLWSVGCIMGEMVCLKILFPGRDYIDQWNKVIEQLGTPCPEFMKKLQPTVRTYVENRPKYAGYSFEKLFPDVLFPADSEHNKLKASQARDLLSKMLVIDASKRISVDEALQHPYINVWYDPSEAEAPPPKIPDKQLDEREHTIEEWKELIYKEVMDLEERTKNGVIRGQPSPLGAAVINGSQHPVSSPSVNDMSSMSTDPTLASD

`CCC(=O)c1c(-c2ccccc2)c2cc(Cl)ccc2c(=O)n1Cc1cc(C(=O)NC)n[nH]1`: in data set [1], the pH-dependent lipophilicity (logD) (as a rule, the decadic logarithm of the distribution of all forms, ionised or not, between an organic phase and buffer at a given pH) turned out to be 3.5. For the same compound, the microsomal CLint at 1 µM in data set [2] came out at 74 µL/min/mg; in data set [3], 37 µL/min/mg. Further, inhibition in [4] was half-maximal at 0.033 µM (IC50).

In the case of `CCC(=O)c1c(-c2ccccc2)c2cc(Cl)ccc2c(=O)n1Cc1cc(S(C)(=O)=O)n(CCC(C)(C)O)n1`, the logD in data set [1] was 4.23. In addition, the microsomal CLint at 1 µM in [2] is 74 µL/min/mg; in [3], 102 µL/min/mg. The IC50 – broadly, the concentration that inhibits the measured activity by half – in data set [5] came out at 0.33 µM; in data set [4], 0.01 µM.

As to `CCC(=O)c1c(-c2ccccc2)c2cc(Cl)ccc2c(=O)n1Cc1cc(C(=O)NC2CC2)n(C)n1`, in data set [1], the log distribution coefficient (logD) amounted to 4.35. The highest level in data set [6] (Cmax) was 47.1 ng/mL. In addition, the clearance – broadly, a measure of how efficiently the substance is removed, as volume per time – in data set [7] is 21.4 mL/min/kg. Further, the microsomal CLint at 1 µM was determined as 89 µL/min/mg in [2] and 44 µL/min/mg in data set [3]. The IC50 in data set [5] was 0.72 µM; in [4], 0.0064 µM. The bioavailability (commonly the share of a dose that reaches the circulation, judged against a reference dose that is usually intravenous) in data set [8] came to 15%. For the same compound, the result in data set [9] was Active. In addition, the AUC (usually concentration integrated over time) was determined as 234 ng·h/mL in data set [10] and 340 ng·h/mL in [11]. In addition, the Tmax (commonly the time from dosing to the highest level) in data set [12] is 2 h. The Vd in data set [13] turned out to be 3.54 L/kg.

On to `COC(=O)c1c(-c2ccccc2)c2cc(Br)ccc2c(=O)n1Cc1ccc(S(C)(=O)=O)cc1`, for which, in data set [5], the IC50 is 2.6 µM.

In turn, `CCC(=O)c1c(-c2ccccc2)c2cc(Cl)ccc2c(=O)n1Cc1cn(C(=O)NC)c(C)n1` had an IC50 in data set [4] of 0.0068 µM.

On to `CCC(=O)c1c(-c2ccccc2)c2cc(Cl)ccc2c(=O)n1Cc1cc(S(C)(=O)=O)n(CC(F)F)n1`, for which, in data set [1], the logD came out at 4.19. Further, the microsomal CLint at 1 µM was 52 µL/min/mg in [2] and 36 µL/min/mg in [3]. The half-maximal inhibitory concentration (IC50) worked out at 0.48 µM in data set [5] and 0.01 µM in data set [4].

`CCC(=O)c1c(-c2ccccc2)c2cc(Cl)ccc2c(=O)n1Cc1cc(S(C)(=O)=O)n(CC(N)=O)n1` showed a logD in data set [1] of 3.42. Moreover, the IC50 in data set [5] is 1.05 µM; in data set [4], 0.0082 µM. For the same compound, the microsomal CLint at 1 µM in data set [3] was 14 µL/min/mg.

In the case of `CCNC(=O)n1cc(Cn2c(C(=O)CC)c(-c3ccccc3)c3cc(Cl)ccc3c2=O)cn1`, the logD in [1] was 4.45. In addition, the microsomal CLint at 1 µM in data set [2] is 60 µL/min/mg; in [3] it was 43 µL/min/mg. Besides, the IC50 in [4] is 0.043 µM.

For the compound `CCC(=O)c1c(-c2ccccc2)c2cc(Cl)ccc2c(=O)n1Cc1cc(C(N)=O)n(CC)n1`, the log distribution coefficient (logD) in data set [1] worked out at 4.08. Further, the microsomal CLint at 1 µM came to 110 µL/min/mg in data set [2] and 35 µL/min/mg in data set [3]. The IC50 in data set [5] was 0.67 µM; in data set [4] it was 0.011 µM.

For `CCC(=O)c1c(-c2ccccc2)c2cc(Cl)ccc2c(=O)n1Cc1cc(C(=O)N(C)C)n(C)n1`, the logD in data set [1] was determined as 3.91. Besides, the results for the microsomal CLint at 1 µM in [2] and in [3] were 230 µL/min/mg and 250 µL/min/mg, respectively. Moreover, the IC50 in data set [4] amounted to 0.011 µM.

With `CCC(=O)c1c(-c2ccccc2)c2cc(Cl)ccc2c(=O)n1Cc1cc(C(=O)NC)n(C)n1`, in [1], the logD was determined as 3.97. Moreover, the microsomal CLint at 1 µM in [2] was found to be 177 µL/min/mg; in data set [3] it was 79 µL/min/mg. Moreover, the IC50 in [5] is 0.26 µM; in data set [4] it was 0.0094 µM.

On to `CCC(=O)c1c(-c2ccccc2)c2cc(Cl)ccc2c(=O)n1Cc1ccc(S(C)(=O)=O)cc1`, for which, in [4], half-maximal inhibition (IC50) required 0.028 µM.

On to `CCC(=O)c1c(-c2ccccc2)c2cc(Cl)ccc2c(=O)n1Cc1ccc(C(=O)O)cc1`, for which the IC50 in [5] is 2.3 µM.

Consider `CCC(=O)c1c(-c2ccccc2)c2cc(Cl)ccc2c(=O)n1Cc1cc(S(C)(=O)=O)n(CC(C)=O)n1`, for which, in data set [1], the pH-dependent lipophilicity (logD) stood at 3.79. Besides, the microsomal CLint at 1 µM in data set [2] is 80 µL/min/mg; in data set [3], 70 µL/min/mg. The IC50 was 0.73 µM in data set [5] and 0.0076 µM in [4].

Turning to `CCNC(=O)n1ccc(Cn2c(C(=O)CC)c(-c3ccccc3)c3cc(Cl)ccc3c2=O)n1`, the logD in [1] is 4.51. This compound also registered an IC50 in [4] of 0.0086 µM.

In the case of `CCC(=O)c1c(-c2ccccc2)c2cc(Cl)ccc2c(=O)n1Cc1cc(C(N)=O)n(C)n1`, the logD in data set [1] came to 3.77. Besides, the values for the microsomal CLint at 1 µM in data set [2] and in [3] were 81 µL/min/mg and 15 µL/min/mg, respectively. In addition, the results for the IC50 in [5] and in data set [4] were 2.18 µM and 0.0073 µM, respectively.

Regarding `CCC(=O)c1c(-c2ccccc2)c2cc(Cl)ccc2c(=O)n1Cc1cc(C(=O)NC2CC2)n(CC(F)F)n1`, the logD in data set [1] was found to be 4.66. Also, the IC50 in data set [5] was 1.14 µM; in data set [4], 0.01 µM. For the same compound, the microsomal CLint at 1 µM in data set [3] was found to be 14 µL/min/mg.

(Values after ChEMBL document CHEMBL1144699 (Bioorg Med Chem, 2008).)
